This passage reports EC50 results from ChEMBL document CHEMBL1139724, “Synthesis and free radical scavenging activity of a novel metabolite from the fungus Colletotrichum gloeosporioides” (Bioorg Med Chem Lett, 2006).

The experiment in a line: DPPH radical scavenging activity. It is filed as functional. On the technique in general: The DPPH test is a chemical assay of radical scavenging.

`Oc1ccc([C@H]2OC[C@H](O)[C@@H]2O)cc1O`: the EC50 came out at 0.14 mol/mol.
For the compound `Cc1cc(C(C)(C)C)c(O)c(C(C)(C)C)c1` [BUTYLATED HYDROXYTOLUENE], the EC50 is 0.23 mol/mol.
The value for `O=C(O)/C=C/c1ccc(O)c(O)c1` [CAFFEIC ACID] was 0.11 mol/mol; that for `O=C(O)c1ccc(O)c(O)c1` [PROTOCATECHUIC ACID] was 0.14 mol/mol.
